Reference: patent publication EP0497921B1, “METHOD FOR INHIBITING ENZYMATIC SYNTHESIS OF NUCLEIC ACIDS USING ISOPSORALENS” (ISAACS, Stephen T., priority 1989, dated 1991)

Target: Taq polymerase (Thermus aquaticus, UniProt P19821)
Assay: Primer extension on 71-mer after random addition of compound or addition of photoproduct
Type: biochemical
Details: for extension products, irradiated samples: 71-mer irradiated 15 minutes on CE-I at 25°C with AMIP (200 µg/ml), AMDMIP (200 µg/ml) or MIP (60 µg/ml), extension 5 minutes at 55°C
Excerpt: In this experiment, the ability of AMIP, AMDMIP and MIP to block replication of 71-mer is investigated by randomly adding each compound to the 71-mer. of course, addition may only be random in the sense that one or more adducts may be formed with any one strand of nucleic acid. The actual placement of the isopsoralen may be governed by preferential binding at particular sites (e.g. A:T). In addition to blockage by random adducts, photoproducts of the various isopsoralens may be providing an inhibitory effect. No attempt to separate the effects of photoproduct from the effects of covalent adducts on the 71-mer template was made in this series of experiments.
In these experiments, the 71-mer template (10^-9 M) was primed with ^32P-SK-39 (10^-8) and extended with Taq polymerase in a total volume of 20 µl. The dNTP concentration was 200 µM. In the control samples, the 71-mer, the primer, and the dNTPs were mixed in Taq buffer in a volume of 18 µl. These samples were initially denatured at 95°C for 5 minutes, followed by equilibration at 550C for 3 minutes. Taq enzyme was then added (0.5 units) and the extension reaction was carried out for 5 minutes at 55°C. The reaction was stopped by making the solution 10 mM in EDTA. In another set of samples, the 71-mer in 10 µl was mixed with either AMIP (200 µg/ml), AMDMIP (200 µg/ml), or MIP (60 µg/ml). Half of these samples were irradiated for 15 minutes on the CE-I device at 25°C. The other half was kept in the dark as controls. These samples were then mixed with the primer and dNTPs as before, and were subjected to the same thermal profile and extension reactions as the samples that were described earlier. The results were examined by PAGE. The extended product bands were identified by autoradiography, excised and counted (data not shown).
In this experiment, the ability of two different Phenylazide derivatives (see Table 1), photobiotin (Vector Labs) and monoazide ethidium chloride, to block replication of 71-mer was investigated by randomly adding each compound to the 71-mer. Again, addition may only be random in the sense that one or more adducts may be formed with any one strand of nucleic acid. The actual placement of these compounds may be governed by preferential binding at particular sites (e.g. A:T). In addition to blockage by random adducts, there may be inhibition by photoproducts. As in Example 23, no attempt was made to separate the impact of photoproducts from that of covalent binding of photoreactive compound on the 71-mer.
The two compounds, photobiotin and monoazide ethidium chloride, have different spectral characteristics. To activate these compounds, two different wavelength regions were selected using a single light source (General Electric Sunlamp, Model RSM, 275 watt). The light source was positioned 10 cm above uncapped Eppendorph tubes which contained samples to be irradiated. The samples were kept on ice during irradiation. A pyrex dish was placed between the lamp and the samples.
For samples containing photobiotin, 2.5 cm of water was added to the pyrex dish to help remove some of the infrared radiation. The samples were irradiated for 15 minutes.
For samples containing monoazide ethidium chloride, wavelengths less than 400 nm were filtered out by using 2.5 cm of an aqueous solution of 2.9 M NaNO2. Removal of short wavelengths (i.e. wavelengths shorter than 400 nm) is necessary for the use of monoazide ethidium chloride. Irradiation of this compound with shorter wavelengths results in conversion to non-active forms (data not shown). Wavelengths below 400 nm are therefore undesirable for use with this compound.
In this experiment, the 71-mer template (2 x 10^-9 M) in 10 µl was mixed with either no photoreactive compound, photobiotin (6 x 10^-6 M), or monoazide ethidium (1.4 x 10^-3 M). Half of each of these samples were irradiated on ice for 15 minutes with wavelengths appropriate for each specific photoreactive compound. […]

Taq polymerase, sequence (P19821 whole entry): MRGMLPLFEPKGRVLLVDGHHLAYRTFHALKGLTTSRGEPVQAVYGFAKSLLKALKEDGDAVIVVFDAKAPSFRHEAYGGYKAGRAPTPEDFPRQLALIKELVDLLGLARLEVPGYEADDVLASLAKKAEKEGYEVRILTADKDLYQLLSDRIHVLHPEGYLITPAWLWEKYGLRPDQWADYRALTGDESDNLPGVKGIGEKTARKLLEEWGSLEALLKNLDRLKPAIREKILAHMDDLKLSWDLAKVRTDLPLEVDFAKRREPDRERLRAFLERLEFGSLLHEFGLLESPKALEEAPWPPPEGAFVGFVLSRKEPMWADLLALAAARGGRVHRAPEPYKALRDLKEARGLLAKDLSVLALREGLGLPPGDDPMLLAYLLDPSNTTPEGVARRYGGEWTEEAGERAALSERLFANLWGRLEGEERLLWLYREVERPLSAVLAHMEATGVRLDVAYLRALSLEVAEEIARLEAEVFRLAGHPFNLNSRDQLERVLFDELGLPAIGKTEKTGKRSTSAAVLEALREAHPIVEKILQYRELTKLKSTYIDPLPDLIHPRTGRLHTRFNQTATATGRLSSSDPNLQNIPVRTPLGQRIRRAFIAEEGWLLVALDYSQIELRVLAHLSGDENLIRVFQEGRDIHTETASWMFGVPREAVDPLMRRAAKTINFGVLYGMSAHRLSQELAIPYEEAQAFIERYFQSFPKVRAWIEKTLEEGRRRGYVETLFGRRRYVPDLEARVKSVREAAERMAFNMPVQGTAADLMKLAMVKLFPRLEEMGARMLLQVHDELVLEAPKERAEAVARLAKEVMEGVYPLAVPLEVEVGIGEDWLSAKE

| Compound | extension products, 71-mer irradiated in the presence of AMDMIP (200 µg/ml AMDMIP, CE-I device at 25°C) | extension products, irradiated samples | extension products, dark controls (unirradiated AMDMIP added to unirradiated 71-mer) | amount of full length product relative to the control samples (irradiated MIP (60 µg/ml)) |
| --- | --- | --- | --- | --- |
| 4'-Aminomethyl-4,5'-dimethylisopsoralen [AMDMIP] | no extension products at all | not extended at all | full length extension product |  |
| 5-Aminomethylisopsoralen [AMIP] |  | not extended at all |  |  |
| Cc1cc2occc2c2oc(=O)ccc12 [MIP, 5-Methylisopsoralen] |  | some full length extension product and a minor truncated product |  | half |
